# Measured values as given in the supplement of paper PMC10307832.
# Tests used:
# Assay in all cases: relative viability (nuclei count vs DMSO), 5 days (fraction); higher = more cells survive
# KN-93 + Dasatinib = compound: CN(C/C=C/C1=CC=C(C=C1)Cl)CC2=CC=CC=C2N(CCO)S(=O)(=O)C3=CC=C(C=C3)OC [KN-93] + Cc1nc(Nc2ncc(C(=O)Nc3c(C)cccc3Cl)s2)cc(N2CCN(CCO)CC2)n1 [Dasatinib] (partner 0.075 µM)
# How it was run: (§1)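 The day after seeding in 1536-well plates, lung cancer cell lines were treated by pin tool with a single drug, or with a fixed anchor-drug dose together with five library-drug doses (not always all listed) in √10 steps. After 5 days, a combined fix-and-stain solution (final 0.05% Triton X-100, 1% formaldehyde, 1 ug/ml Hoechst) was added. Nuclei counted on 4× images gave relative viability as treated counts over vehicle counts, reported as the median of duplicate plates.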
# KN-93 + Pictilisib = compound: CN(C/C=C/C1=CC=C(C=C1)Cl)CC2=CC=CC=C2N(CCO)S(=O)(=O)C3=CC=C(C=C3)OC [KN-93] + CS(=O)(=O)N1CCN(Cc2cc3nc(-c4cccc5[nH]ncc45)nc(N4CCOCC4)c3s2)CC1 [Pictilisib] (partner 1 µM)
# How it was run: as §1
# KN-93 + Phenformin = compound: CN(C/C=C/C1=CC=C(C=C1)Cl)CC2=CC=CC=C2N(CCO)S(=O)(=O)C3=CC=C(C=C3)OC [KN-93] + N=C(N)NC(=N)NCCc1ccccc1 [Phenformin] (partner 250 µM)
# How it was run: as §1
# KN-93 + Alpelisib = compound: CN(C/C=C/C1=CC=C(C=C1)Cl)CC2=CC=CC=C2N(CCO)S(=O)(=O)C3=CC=C(C=C3)OC [KN-93] + Cc1nc(NC(=O)N2CCC[C@H]2C(N)=O)sc1-c1ccnc(C(C)(C)C(F)(F)F)c1 [Alpelisib] (partner 2 µM)
# How it was run: as §1
# KN-93 + Lapatinib = compound: CN(C/C=C/C1=CC=C(C=C1)Cl)CC2=CC=CC=C2N(CCO)S(=O)(=O)C3=CC=C(C=C3)OC [KN-93] + CS(=O)(=O)CCNCc1ccc(-c2ccc3ncnc(Nc4ccc(OCc5cccc(F)c5)c(Cl)c4)c3c2)o1 [Lapatinib] (partner 2 µM)
# How it was run: as §1
Cell Line,relative viability (KN-93 + Dasatinib; first compound 0.08 µM),relative viability (KN-93 + Dasatinib; first compound 0.253 µM),relative viability (KN-93 + Dasatinib; first compound 2.53 µM),relative viability (KN-93 + Dasatinib; first compound 8 µM),relative viability (KN-93 + Pictilisib; first compound 0.08 µM),relative viability (KN-93 + Pictilisib; first compound 0.253 µM),relative viability (KN-93 + Pictilisib; first compound 2.53 µM),relative viability (KN-93 + Pictilisib; first compound 8 µM),relative viability (KN-93 + Phenformin; first compound 0.08 µM),relative viability (KN-93 + Phenformin; first compound 0.253 µM),relative viability (KN-93 + Phenformin; first compound 2.53 µM),relative viability (KN-93 + Phenformin; first compound 8 µM),relative viability (KN-93 + Alpelisib; first compound 0.08 µM),relative viability (KN-93 + Alpelisib; first compound 0.253 µM),relative viability (KN-93 + Alpelisib; first compound 2.53 µM),relative viability (KN-93 + Alpelisib; first compound 8 µM),relative viability (KN-93 + Lapatinib; first compound 0.08 µM),relative viability (KN-93 + Lapatinib; first compound 0.253 µM),relative viability (KN-93 + Lapatinib; first compound 2.53 µM),relative viability (KN-93 + Lapatinib; first compound 8 µM)
NCI-H1651,0.491,0.461,0.626,0.246,0.45,0.658,0.532,0.477,0.369,0.44,0.369,0.321,1.05,1.23,1.3,0.624,0.732,1.02,0.914,0.664
NCI-H1666,0.842,0.924,0.889,0.645,0.56,0.388,0.489,0.527,0.611,0.772,0.656,0.576,0.974,0.895,1.22,0.674,0.747,0.638,0.679,0.532
NCI-H1734,0.478,0.544,0.577,0.358,0.534,0.548,0.492,0.29,0.363,0.446,0.381,0.411,0.718,0.712,0.746,0.533,1.15,1.1,1.6,0.88
NCI-H1755,0.392,0.407,0.384,0.255,0.413,0.429,0.475,0.205,0.699,0.608,0.674,0.605,0.718,1.13,1.2,0.819,1.02,1.26,1.04,0.561
NCI-H1792,0.651,0.681,0.973,0.633,,0.233,0.253,0.223,0.177,,0.25,0.258,,0.759,0.735,0.458,,0.904,1.67,0.818
NCI-H1793,0.406,0.374,0.407,0.169,,0.334,0.382,0.267,0.372,0.36,0.367,0.2,,0.851,0.624,0.542,,0.804,0.992,0.556
NCI-H1915,0.354,0.343,0.305,0.225,0.967,0.865,0.928,0.806,0.382,0.421,0.408,0.359,1.06,1.17,1.1,0.95,0.963,1.25,1.01,0.908
NCI-H1944,0.235,0.22,0.213,0.154,0.372,0.292,0.332,0.34,0.172,0.216,0.218,0.195,0.832,0.761,0.931,0.754,0.84,0.793,0.96,0.771
NCI-H1975,0.339,0.336,0.351,0.224,0.281,0.267,0.28,0.25,0.423,0.463,0.456,0.4,0.607,0.717,0.556,0.284,0.656,1.05,0.976,0.579
NCI-H1993,0.518,0.547,0.55,0.47,0.689,1.07,0.761,0.754,0.619,0.519,0.512,0.574,0.648,0.574,0.71,0.59,0.693,0.772,0.862,0.758
NCI-H2009,0.326,0.29,0.236,0.159,0.841,1.01,0.761,0.345,0.426,0.557,0.492,0.317,1.2,1.3,1.29,0.887,0.899,0.891,0.814,0.418
NCI-H2023,0.494,0.472,0.647,0.244,0.3,0.212,0.22,0.167,0.365,0.466,0.496,0.247,0.562,0.46,0.689,0.517,0.804,0.858,0.932,0.239
NCI-H2085,0.237,0.254,0.231,0.268,0.438,0.452,0.518,0.414,0.698,0.796,0.815,0.655,0.993,1.07,0.985,0.749,0.816,0.695,0.803,0.541
NCI-H2087,0.793,1.38,0.882,0.622,0.839,0.967,0.898,0.466,0.427,0.648,0.57,0.442,0.879,1.21,0.933,0.532,1.06,1.22,1.02,0.286
